Experiments:
NMDA receptors = assay: Cortical slice studies: antagonism of responses to NMDA in rat cortical slice; type: cell-based; settings: from righthand shift in the NMDA concentration-response curve, read-out: apparent equilibrium constant (Kb)
Method: The compounds useful in this invention potently and selectively block responses to NMDA in a brain slice from rat cortex, inhibit glycine binding to the strychnine-insensitive site present on the NMDA receptor, and block the potentiation of NMDA responses by glycine in cultured cortical neurones.
The effects of compounds of the invention on responses to NMDA were assessed using the rat cortical slice as described by Wong et al., Proc. Natl. Acad. Sci. USA, 1986, 83, 7104. The apparent equilibrium constant (Kb) was calculated from the righthand shift in the NMDA concentration-response curve produced by the compound under test.

NMDA-induced excitation = settings: Evans et al., Brain Research, 1978, 148, 536-542; cited from earlier work

Row | Compound | Kb (NMDA receptors) [µM] | antagonism of NMDA-induced excitation (in words) (NMDA-induced excitation)
1 | C[C@H]1CN(O)C(=O)[C@H]1N (relative stereo) [Example 1, cis-3-Amino-1-hydroxy-4-methylpyrrolidin-2-one] | < 100 | –
2 | C[C@@H]1CN(O)C(=O)[C@@H]1N [Example 2, (3R,4R)-3-Amino-1-hydroxy-4-methylpyrrolidin-2-one] | < 100 | –
3 | NC1CCN(O)C1=O (stereo not drawn) [HA-966, 3-amino-1-hydroxypyrrolidin-2-one] | – | able to antagonise selectively NMDA-induced excitation
